How the values were obtained:
[1] = test system: Human immunodeficiency virus 1; assay: Antiviral activity against HIV-1 IIIB infected in human MT4 cells assessed as protection against virus-induced cytotoxicity after 5 days by MTT assay; type: functional, organism-based; conditions: Human immunodeficiency virus 1, IIIB, MT4, 120 h
[2] = test system: Human immunodeficiency virus 1; assay: Antiviral activity against HIV-1 IIIB harboring RT L100I mutant infected in human MT4 cells assessed as protection against virus-induced cytotoxicity incubated for 5 days by MTT assay; type: functional, organism-based; conditions: Human immunodeficiency virus 1, IIIB, MT4, 120 h
[3] = test system: Human immunodeficiency virus 1; assay: Antiviral activity against HIV-1 IIIB harboring RT K103N mutant infected in human MT4 cells assessed as protection against virus-induced cytotoxicity incubated for 5 days by MTT assay; type: functional, organism-based; conditions: Human immunodeficiency virus 1, IIIB, MT4, 120 h
[4] = test system: Human immunodeficiency virus 1; assay: Antiviral activity against HIV-1 IIIB harboring RT Y181C mutant infected in human MT4 cells assessed as protection against virus-induced cytotoxicity incubated for 5 days by MTT assay; type: functional, organism-based; conditions: Human immunodeficiency virus 1, IIIB, MT4, 120 h
[5] = test system: Human immunodeficiency virus 1; assay: Antiviral activity against HIV-1 IIIB harboring RT Y188L mutant infected in human MT4 cells assessed as protection against virus-induced cytotoxicity incubated for 5 days by MTT assay; type: functional, organism-based; conditions: Human immunodeficiency virus 1, IIIB, MT4, 120 h
[6] = test system: Human immunodeficiency virus 1; assay: Antiviral activity against HIV-1 IIIB harboring RT E138K mutant infected in human MT4 cells assessed as protection against virus-induced cytotoxicity incubated for 5 days by MTT assay; type: functional, organism-based; conditions: Human immunodeficiency virus 1, IIIB, MT4, 120 h
[7] = test system: Human immunodeficiency virus 1; assay: Antiviral activity against HIV-1 IIIB harboring RT F227L/V106A mutant infected in human MT4 cells assessed as protection against virus-induced cytotoxicity incubated for 5 days by MTT assay; type: functional, organism-based; conditions: Human immunodeficiency virus 1, IIIB, MT4, 120 h
[8] = test system: Human immunodeficiency virus 1; assay: Antiviral activity against HIV-1 RES056 infected in human MT4 cells assessed as protection against virus-induced cytotoxicity incubated for 5 days by MTT assay; type: functional, organism-based; conditions: Human immunodeficiency virus 1, RES056, MT4, 120 h
[9] = Antiviral activity against HIV-2 ROD infected in human MT4 cells assessed as protection against virus-induced cytotoxicity incubated for 5 days by MTT assay; type: functional, cell-based; conditions: HIV-2, ISOLATE ROD, MT4, 120 h
[10] = Cytotoxicity against human MT4 cells assessed as reduction in cell viability after 5 days by MTT assay; type: cell-based; conditions: time 5 day
[11] = test system: Human immunodeficiency virus 1; assay: Potency index, ratio of Etravirine EC50 to test compound EC50 for antiviral activity against HIV-1 IIIB infected in human MT4 cells by MTT assay; type: functional
[12] = test system: Human immunodeficiency virus 1; assay: Potency index, ratio of Etravirine EC50 to test compound EC50 for antiviral activity against HIV-1 IIIB harboring RT E138K mutant infected in human MT4 cells by MTT assay; type: functional
[13] = biological target: Human immunodeficiency virus type 1 reverse transcriptase (Human immunodeficiency virus 1, UniProt Q72547); assay: Inhibition of wild type HIV-1 reverse transcriptase assessed as reduction in biotin-dUTP incorporation in presence of template-primer incubated for 60 mins followed by transferring to streptavidin-coated plate and further incubation for 60 mins by ELISA
[14] = test system: Human immunodeficiency virus 1; assay: Antiviral activity against HIV-1 IIIB; type: functional, organism-based; conditions: Human immunodeficiency virus 1, IIIB

Row | SMILES | EC50 [1] | EC50 [2] | EC50 [3] | EC50 [4] | EC50 [5] | EC50 [6] | EC50 [7] | EC50 [8] | EC50 [9] | CC50 at 120 h [10] | Ratio EC50 [11] | Ratio EC50 [12] | IC50 [13] | EC50 [14]
1 | Cc1cc(C)cc(-c2cnc(Nc3ccc(C#N)cc3)nc2Oc2c(C)cc(C#N)cc2C)c1 | 102 nM | 421 nM | 135 nM | 833 nM | 2230 nM | 319 nM | 1110 nM | > 38800 nM | > 38800 nM | 39000 nM | – | – | – | –
2 | Cc1cc(C#N)cc(C)c1Oc1nc(Nc2ccc(C#N)cc2)ncc1-c1ccc(C(F)(F)F)cc1 | 11.5 nM | 246 nM | 25.4 nM | 235 nM | 598 nM | 60.3 nM | 724 nM | 5460 nM | > 35000 nM | 35000 nM | – | – | – | –
3 | Cc1cc(C#N)cc(C)c1Oc1nc(Nc2ccc(C#N)cc2)ncc1-c1ccco1 | 3.6 nM | 24.8 nM | 4.7 nM | 30.4 nM | 37.4 nM | 9.3 nM | 75.3 nM | 1010 nM | > 307000 nM | > 307000 nM | – | – | – | –
4 | Cc1cc(C#N)cc(C)c1Oc1nc(Nc2ccc(C#N)cc2)ncc1-c1ccc(Cl)cc1 | 14.4 nM | 216 nM | 19.5 nM | 250 nM | 567 nM | 72.6 nM | 902 nM | 5120 nM | > 72600 nM | 72600 nM | – | – | – | –
5 | Cc1cn([C@H]2C[C@H](N=[N+]=[N-])[C@@H](CO)O2)c(=O)[nH]c1=O [ZIDOVUDINE] | – | – | – | – | – | – | – | 20.1 nM | – | > 7480 nM | – | – | – | –
6 | Cc1cc(C#N)cc(C)c1Oc1nc(Nc2ccc(C#N)cc2)ncc1-c1ccsc1 | 4.1 nM | 53.4 nM | 4.3 nM | 57.1 nM | 41.8 nM | 10.7 nM | 64.8 nM | 1440 nM | > 3920 nM | 3920 nM | – | – | – | –
7 | Cc1cc(C#N)cc(C)c1Oc1nc(Nc2ccc(C#N)cc2)ncc1-c1cccnc1 | 2.5 nM | 24.2 nM | 2.7 nM | 23.5 nM | 20 nM | 7.1 nM | 112 nM | 300 nM | > 13500 nM | 13500 nM | 1.2 | 1.4 | – | –
8 | Cc1cc(C#N)cc(C)c1Oc1nc(Nc2ccc(C#N)cc2)ncc1-c1ccccc1 | 24.4 nM | 446 nM | 63.5 nM | 576 nM | 222 nM | 122 nM | 881 nM | 9130 nM | > 31800 nM | 31800 nM | – | – | – | –
9 | Cc1cc(C#N)cc(C)c1Oc1nc(Nc2ccc(C#N)cc2)ncc1-c1ccncc1 | 2.5 nM | 28.3 nM | 4.2 nM | 24.1 nM | 30.9 nM | 5.9 nM | 41.3 nM | 718 nM | > 28000 nM | 28000 nM | 1.2 | 1.4 | 570 nM | –
10 | Cc1cc(C#N)cc(C)c1Oc1nc(Nc2ccc(C#N)cc2)nc(N)c1Br [ETRAVIRINE] | – | – | – | – | – | – | – | – | – | > 4590 nM | – | – | – | –
11 | Cc1cc(C#N)cc(C)c1Oc1nc(Nc2ccc(C#N)cc2)ncc1-c1cncnc1 | 4.6 nM | 38.3 nM | 5.3 nM | 32.4 nM | 73.4 nM | 11.8 nM | 325 nM | 316 nM | > 298000 nM | > 298000 nM | – | – | – | –
12 | Cc1cc(C#N)cc(C)c1Oc1nc(Nc2ccc(C#N)cc2)ncc1-c1cccc2ccccc12 | 934 nM | 2670 nM | 1820 nM | 21700 nM | 10600 nM | 5450 nM | 38400 nM | 218000 nM | > 267000 nM | > 267000 nM | – | – | – | –
13 | Cc1cc(C#N)cc(C)c1Oc1nc(Nc2ccc(C#N)cc2)nc2ccsc12 | – | – | – | – | – | – | – | – | – | – | – | – | – | 1.6 nM
14 | Cc1cc(C#N)cc(C)c1Oc1nc(Nc2ccc(C#N)cc2)ncc1-c1ccoc1 | 3.3 nM | 19.1 nM | 4.4 nM | 17.9 nM | 22.6 nM | 9.3 nM | 32.4 nM | 395 nM | > 4980 nM | 4980 nM | – | – | – | –
15 | Cc1cc(C#N)cc(C)c1Oc1nc(Nc2ccc(C#N)cc2)ncc1-c1cccs1 | 4.9 nM | 21.1 nM | 4.8 nM | 36 nM | 57.5 nM | 12.9 nM | 269 nM | 1150 nM | > 6430 nM | 6430 nM | – | – | – | –
16 | Cc1cc(C#N)cc(C)c1Oc1nc(Nc2ccc(C#N)cc2)ncc1-c1ccc(-c2ccccc2)cc1 | 20.5 nM | 195 nM | 29.5 nM | 361 nM | 1320 nM | 112 nM | 1220 nM | 8520 nM | > 253000 nM | > 253000 nM | – | – | – | –
17 | Cc1cc(C#N)cc(C)c1Oc1nc(Nc2ccc(C#N)cc2)ncc1-c1ccc2ccccc2c1 | 16.8 nM | 195 nM | 35.7 nM | 356 nM | 849 nM | 76.9 nM | 1200 nM | > 8460 nM | > 8460 nM | 8460 nM | – | – | – | –
18 | Cc1ccnc2c1NC(=O)c1cccnc1N2C1CC1 [NEVIRAPINE] | 133 nM | 589 nM | 2320 nM | 3670 nM | 5350 nM | 115 nM | 4310 nM | 10700 nM | – | > 15000 nM | – | – | – | –
19 | COc1ccc(-c2cnc(Nc3ccc(C#N)cc3)nc2Oc2c(C)cc(C#N)cc2C)cc1 | 8 nM | 164 nM | 14.6 nM | 186 nM | 143 nM | 38.4 nM | 278 nM | 3770 nM | > 279000 nM | > 279000 nM | – | – | – | –
20 | O=C1Nc2ccc(Cl)cc2[C@@](C#CC2CC2)(C(F)(F)F)O1 [EFAVIRENZ] | – | 30.8 nM | – | – | – | – | – | 273 nM | – | > 6340 nM | – | – | – | –
21 | Cc1cc(C#N)cc(C)c1Oc1nc(Nc2ccc(C#N)cc2)ncc1-c1ccc(N)cc1 | 3.5 nM | 20.5 nM | 3.8 nM | 41.6 nM | 33.5 nM | 10.5 nM | 44.1 nM | > 306 nM | > 310 nM | 310 nM | – | – | – | –
22 | Cc1ccc(-c2cnc(Nc3ccc(C#N)cc3)nc2Oc2c(C)cc(C#N)cc2C)cc1 | 11.7 nM | 138 nM | 20.3 nM | 347 nM | 267 nM | 57.2 nM | 707 nM | > 10600 nM | > 26100 nM | 26100 nM | – | – | – | –
23 | Cc1cc(C#N)cc(C)c1Oc1nc(Nc2ccc(C#N)cc2)ncc1-c1ccc(F)cc1 | 6.2 nM | 159 nM | 10.1 nM | 113 nM | 102 nM | 18.5 nM | 526 nM | 5000 nM | > 42700 nM | 42700 nM | – | – | – | –
